# According to PMC7578299, “The antiviral effects of baloxavir marboxil against influenza A virus infection in ferrets” (Influenza and Other Respiratory Viruses, 2020):
# Values joined by “and” are separate entries in the source; they are usually repeats but may differ in a detail not shown here. Equal values may be shown once. Read-outs that look alike come from different tables or passages of the source.
# Tests used:
# [1] = Pharmacokinetic analysis in ferrets after a single oral administration of BXM; format: in vivo, ferret
# Method: One day prior to administration, group assignment was carried out taking body weight into account. Under isoflurane anesthesia, fasted ferrets (four per group) received BXM (10 or 30 mg/5 mL/kg) suspension orally using an intragastric tube. Blood samples were collected at 0.5, 1, 2, 4, 6, 8, and 24 hours after single oral administration of BXM and centrifuged to obtain plasma. The concentrations of BXA and BXM in plasma were determined by liquid chromatography‐tandem mass spectrometry (LC‐MS/MS). The lower limit of quantification of BXA and BXM in ferret plasma was 0.5 ng/mL. The pharmacokinetic parameters of BXA and BXM were calculated using non‐compartmental analysis module in Phoenix WinNonlin software (version 8.0; Certara LP) (https://onlinehelp.certara.com/phoenix/8.2/topics/nca.htm) based on a non‐compartment model analysis with uniform weighting.
# [2] = Stability in plasma, human; format: in vitro ADME; conditions: incubation of BXM; for % Residual in plasma (BXA, calculated from BXM concentration at 0 min as molar concentration): mean of duplicate; for % Residual in plasma Individual value (BXA, from BXM concentration at 0 minutes as molar concentration): duplicates
# Method: (§1) Approximately 30 mL of blood from Japanese male healthy volunteers was collected and centrifuged to obtain plasma. Blood samples from ferrets, rats, dogs, and monkeys were collected under anesthesia and centrifuged to obtain plasma. BXM was added to reach a final concentration of 200 ng/mL to all pooled plasma samples per species. After incubation for 5, 15, and 30 minutes at 37°C, twofold volume of ice‐cold acetonitrile/methanol (1:1, v/v) was added to the plasma samples to stop further reactions, which were then centrifuged at 1800 g for 10 minutes prior to LC‐MS/MS analysis of BXM in the supernatants.
# [3] = Stability in plasma, ferret; format: in vitro ADME; conditions: incubation of BXM; for % Residual in plasma (BXA, calculated from BXM concentration at 0 min as molar concentration): mean of duplicate; for % Residual in plasma Individual value (BXA, from BXM concentration at 0 minutes as molar concentration): duplicates
# Method: as §1
# [4] = Stability in plasma, rat; format: in vitro ADME; conditions: incubation of BXM; for % Residual in plasma (BXA, calculated from BXM concentration at 0 min as molar concentration): mean of duplicate; for % Residual in plasma Individual value (BXA, from BXM concentration at 0 minutes as molar concentration): duplicates
# Method: as §1
# [5] = Stability in plasma, dog; format: in vitro ADME; conditions: incubation of BXM; for % Residual in plasma (BXA, calculated from BXM concentration at 0 min as molar concentration): mean of duplicate; for % Residual in plasma Individual value (BXA, from BXM concentration at 0 minutes as molar concentration): duplicates
# Method: as §1
# [6] = Stability in plasma, monkey; format: in vitro ADME; conditions: incubation of BXM; for % Residual in plasma (BXA, calculated from BXM concentration at 0 min as molar concentration): mean of duplicate; for % Residual in plasma Individual value (BXA, from BXM concentration at 0 minutes as molar concentration): duplicates
# Method: as §1
# [7] = 5% SDS water vs 0.5% MC, BXM 10 mg/kg
# [8] = single oral BXM 10 mg/kg, 0.5% MC vehicle, mean of three ferrets
# [9] = single oral BXM 10 mg/kg, 5% SDS water vehicle, mean of four ferrets
# [10] = single oral BXM 10 mg/kg, individual ferrets (Ferret-01 to Ferret-04)
# [11] = single oral BXM 10 mg/kg, mean of four ferrets
# [12] = single oral BXM 30 mg/kg, 5% SDS water vehicle, mean of four ferrets
# [13] = single oral BXM 30 mg/kg, individual ferrets (Ferret-05 to Ferret-08)
# [14] = single oral BXM 30 mg/kg, mean of four ferrets
structure (smiles),measurement,setting,value
"O=C1c2c(O)c(=O)ccn2N([C@@H]2c3ccccc3SCc3c2ccc(F)c3F)[C@@H]2COCCN12 [BXA, baloxavir acid]","AUC0-24hr, Ratio to 0.5% MC",[1]; [7],7.0
same,"C24hr, Ratio to 0.5% MC",[1]; [7],13.6
same,"Cmax, Ratio to 0.5% MC",[1]; [7],4.2
same,"T1/2, Ratio to 0.5% MC",[1]; [7],1.5
same,"Tmax, Ratio to 0.5% MC",[1]; [7],3.0
same,AUC0-24hr,[1]; [8],60.2 ng·h/mL
same,C24hr,[1]; [8],0.223 ng/mL
same,Cmax,[1]; [8],15.8 ng/mL
same,T1/2,[1]; [8],4.60 h
same,Tmax,[1]; [8],30 min
same,AUC0-24 h,[1]; [9],421 ± 119 ng·h/mL
same,C 24 h,[1]; [9],3.03 ± 2.33 ng/mL and 3.03 ng/mL
same,C max,[1]; [9],66.6 ± 14.6 ng/mL
same,T 1/2 (terminal elimination half-life),[1]; [9],6.91 ± 3.79 h
same,T max,[1]; [9],1.50 ± 0.58 h
same,"AUC0-24hr, individual data",[1]; [10],292 ng·h/mL and 576 ng·h/mL and 439 ng·h/mL and 378 ng·h/mL
same,"C24hr, individual data",[1]; [10],0.792 ng/mL and 3.90 ng/mL and 1.52 ng/mL and 5.90 ng/mL
same,"Cmax, individual data",[1]; [10],59.4 ng/mL and 80.1 ng/mL and 77.3 ng/mL and 49.5 ng/mL
same,"T1/2, individual data",[1]; [10],4.21 h and 6.47 h and 4.57 h and 12.4 h
same,"Tmax, individual data",[1]; [10],1.00 hr (2×) and 2.00 hr (2×)
same,AUC0-24 h,[1]; [11],0.871 ± 0.246 µM·h
same,C 24 h,[1]; [11],6.26 ± 4.82 nmol/L
same,Cmax,"[1]; single oral BXM 10 mg/kg, mean of four ferrets, read-out: C max",138 ± 30 nM
same,AUC0-24 h,[1]; [12],3240 ± 3240 ng·h/mL
same,C 24 h,[1]; [12],9.91 ± 8.77 ng/mL and 9.91 ng/mL
same,C max,[1]; [12],365 ± 316 ng/mL
same,T 1/2 (terminal elimination half-life),[1]; [12],4.44 ± 0.67 h
same,T max,[1]; [12],2.00 ± 1.41 h
same,"AUC0-24hr, individual data",[1]; [13],7580 ng·h/mL and 3840 ng·h/mL and 1040 ng·h/mL and 508 ng·h/mL
same,"C24hr, individual data",[1]; [13],21.3 ng/mL and 12.3 ng/mL and 3.38 ng/mL and 2.64 ng/mL
same,"Cmax, individual data",[1]; [13],754 ng/mL and 489 ng/mL and 128 ng/mL and 89.6 ng/mL
same,"T1/2, individual data",[1]; [13],3.90 h and 4.32 h and 4.12 h and 5.41 h
same,"Tmax, individual data",[1]; [13],1.00 hr (2×) and 4.00 hr and 2.00 hr
same,AUC0-24 h,[1]; [14],6.71 ± 6.71 µM·h
same,C 24 h,[1]; [14],20.5 ± 18.2 nmol/L
same,Cmax,"[1]; single oral BXM 30 mg/kg, mean of four ferrets, read-out: C max",755 ± 653 nM
same,"% Residual in plasma (BXA, calculated from BXM concentration at 0 min as molar concentration)",[2]; 10 min,8.3%
same,"% Residual in plasma Individual value (BXA, from BXM concentration at 0 minutes as molar concentration)",[2]; 10 minutes,8.4% and 8.3%
same,"% Residual in plasma (BXA, calculated from BXM concentration at 0 min as molar concentration)",[2]; 20 min,22.4%
same,"% Residual in plasma Individual value (BXA, from BXM concentration at 0 minutes as molar concentration)",[2]; 20 minutes,22.4%
same,"% Residual in plasma (BXA, calculated from BXM concentration at 0 min as molar concentration)",[2]; 30 min,38.1%
same,"% Residual in plasma Individual value (BXA, from BXM concentration at 0 minutes as molar concentration)",[2]; 30 minutes,38.4% and 37.8%
same,"% Residual in plasma (BXA, calculated from BXM concentration at 0 min as molar concentration)",[3]; 10 min,4.6%
same,"% Residual in plasma Individual value (BXA, from BXM concentration at 0 minutes as molar concentration)",[3]; 10 minutes,4.6% and 4.7%
same,"% Residual in plasma (BXA, calculated from BXM concentration at 0 min as molar concentration)",[3]; 20 min,13.9%
same,"% Residual in plasma Individual value (BXA, from BXM concentration at 0 minutes as molar concentration)",[3]; 20 minutes,13.8% and 14.1%
same,"% Residual in plasma (BXA, calculated from BXM concentration at 0 min as molar concentration)",[3]; 30 min,24.9%
same,"% Residual in plasma Individual value (BXA, from BXM concentration at 0 minutes as molar concentration)",[3]; 30 minutes,24.9% and 25.0%
same,"% Residual in plasma (BXA, calculated from BXM concentration at 0 min as molar concentration)",[4]; 10 min,104.6%
same,"% Residual in plasma Individual value (BXA, from BXM concentration at 0 minutes as molar concentration)",[4]; 10 minutes,102.8% and 106.3%
same,"% Residual in plasma (BXA, calculated from BXM concentration at 0 min as molar concentration)",[4]; 20 min,104.0%
same,"% Residual in plasma Individual value (BXA, from BXM concentration at 0 minutes as molar concentration)",[4]; 20 minutes,102.2% and 105.9%
same,"% Residual in plasma (BXA, calculated from BXM concentration at 0 min as molar concentration)",[4]; 30 min,103.2%
same,"% Residual in plasma Individual value (BXA, from BXM concentration at 0 minutes as molar concentration)",[4]; 30 minutes,103.0% and 103.4%
same,"% Residual in plasma (BXA, calculated from BXM concentration at 0 min as molar concentration)",[5]; 10 min,2.8%
same,"% Residual in plasma Individual value (BXA, from BXM concentration at 0 minutes as molar concentration)",[5]; 10 minutes,2.8%
same,"% Residual in plasma (BXA, calculated from BXM concentration at 0 min as molar concentration)",[5]; 20 min,8.2%
same,"% Residual in plasma Individual value (BXA, from BXM concentration at 0 minutes as molar concentration)",[5]; 20 minutes,8.1% and 8.2%
same,"% Residual in plasma (BXA, calculated from BXM concentration at 0 min as molar concentration)",[5]; 30 min,15.6%
same,"% Residual in plasma Individual value (BXA, from BXM concentration at 0 minutes as molar concentration)",[5]; 30 minutes,15.6%
same,"% Residual in plasma (BXA, calculated from BXM concentration at 0 min as molar concentration)",[6]; 10 min,9.0%
same,"% Residual in plasma Individual value (BXA, from BXM concentration at 0 minutes as molar concentration)",[6]; 10 minutes,8.9% and 9.1%
same,"% Residual in plasma (BXA, calculated from BXM concentration at 0 min as molar concentration)",[6]; 20 min,24.0%
same,"% Residual in plasma Individual value (BXA, from BXM concentration at 0 minutes as molar concentration)",[6]; 20 minutes,23.5% and 24.6%
same,"% Residual in plasma (BXA, calculated from BXM concentration at 0 min as molar concentration)",[6]; 30 min,43.0%
same,"% Residual in plasma Individual value (BXA, from BXM concentration at 0 minutes as molar concentration)",[6]; 30 minutes,44.0% and 42.1%
